Legend:
RAW macrophages = test: Cell-based NO2- scavenging activity (Griess assay, RAW macrophages); details: for Actual % inhibition of ROS / % inhibition of ROS in comparison to Oil Palm phenolics (± S.E): Table 2; for Actual % inhibition of ROS: each component added at the concentration present in 800 μg/mL OPP; for % inhibition of ROS in comparison to Oil Palm phenolics (± S.E): relative to OPP 800 μg/mL = 100; for Enhancement of anti-inflammatory and anti-oxidative activity of other components / Inhibitory action / nitrite scavenging activity (in words): cell-based Griess assay
Method: FIG. 1 is a graphical representation of the biological enhancement of chemical combination of major compounds of Oil Palm phenolics in cell-based NO2^− scavenging activity (Griess assay, RAW macrophages, Mean±SE).
FIG. 1 and Table 2 show the synergistic effect of the composition in cell based nitrite scavenging activity.
For the study, PH435 composition was prepared according to the concentration present in 800 μg/mL of Oil Palm Phenolics.

[1] = Nitrite measurement (sodium nitroprusside, SNP assay), chemical system; details: for Inhibition of the nitrite ion (in words): chemical system
Excerpt: Nitrite Measurement (Sodium Nitroprusside—SNP Assay)
SNP in aqueous solution at physiological pH spontaneously generates nitric oxide, which interacts with oxygen to produce a nitrite ion that can be estimated by using griess reagent.

Red blood cells = test: Cell-based antioxidant protection in erythrocytes (CAP-e assay), ROS scavenging; details: for Effect on reducing ROS / inhibitory action (in words): RBC cells; for Actual % inhibition of ROS: each component added at the concentration present in 10 mg/mL OPP; for % inhibition of ROS in comparison to Oil Palm phenolics (±S.E.): relative to OPP 10 mg/mL = 100
Excerpt: H2O2 Measurement (Cell-Based Antioxidant Protection in Erythrocytes CAP-e Assay)
Red blood cells can be used as a cellular model to quantify reactive oxygen species (ROS). As these cells lose their nuclei at the erythroblast stage, they cannot perform transcription and translation for bringing about genetic and protein level changes.

[2] = Chemical-based ORAC assay
[3] = test system: Granulocytes/polymorphonuclear (PMN) cells; test: H2O2 measurement, cell-based antioxidant protection in granulocytes/polymorphonuclear (PMN) cells assay
Excerpt: H2O2 Measurement (Cell-Based Antioxidant Protection in Granulocytesipolymorphonuclear—PMN Cells Assay)

Row | Compound | Actual % inhibition of ROS (RAW macrophages) [%] | % inhibition of ROS in comparison to Oil Palm phenolics (± S.E) (RAW macrophages) | Actual % inhibition of ROS (Red blood cells) | % inhibition of ROS in comparison to Oil Palm phenolics (±S.E.) (Red blood cells) | also measured
1 | O=C(/C=C/c1ccc(O)c(O)c1)O[C@@H]1C=C(C(=O)O)C[C@@H](O)[C@@H]1O [3-Caffeoylshikimic acid, 3-caffeoylshikimic acid] | 12.3 | 18.6(±2.3) % | – | – | –
2 | O=C(O)C1=CC(=O)[C@@H](O)[C@H](O)C1 [3-dehydroshikimic acid] | – | – | 9.9% | 13.4 (±0.05) % | Inhibition of the nitrite ion (in words) [1]: low inhibition; Inhibition of the nitrite ion (in words) ([1]; listed as 3-dehydroshikirnic acid): shows inhibitory action; Effect on reducing ROS / inhibitory action (in words) (Red blood cells): shows inhibitory action; Synergy / enhancement effect of the combination on ROS inhibition (Red blood cells; chemical combination versus mathematical sum): enhancement effect could be seen; Enhancement of anti-inflammatory and anti-oxidative activity of other components (RAW macrophages): enhancement effect could be seen; Inhibitory action / nitrite scavenging activity (in words) (RAW macrophages): shows inhibitory action; Enhancement effect [2]: enhancement effect could be seen
3 | O=C(/C=C/c1ccc(O)c(O)c1)O[C@@H]1[C@H](O)C=C(C(=O)O)C[C@H]1O [4-Caffeoylshikimic acid, 4-caffeoylshikimic acid] | 8.4 | 12.7(±2.5) % | – | – | –
4 | O=C(/C=C/c1ccc(O)c(O)c1)O[C@@H]1CC(C(=O)O)=C[C@@H](O)[C@H]1O [5-Caffeoylshikimic acid, 5-caffeoylshikimic acid] | 8.8 | 13.4(±3.7) % | – | – | –
5 | O=C(O)c1ccc(O)c(O)c1 [Protocatechuic acid] | 8.6 | 13 (±0.7) % | – | – | –
6 | O=C(O)C1=C[C@@H](O)[C@@H](O)[C@H](O)C1 [Shikimic acid] | 3.4 | 5.2 (±0.7) % | -Not detected- | -Not detected- | Enhancement of nitrite inhibition when added with other components ([1]; added along with p-hydroxybenzoic acid): does not show any enhancement; Inhibition of the nitrite ion (in words) [1]: shows inhibitory action; Inhibition of the nitrite ion (in words) ([1]; listed as shikimic acid): low inhibition; Effect on reducing ROS / inhibitory action (in words) (Red blood cells): shows no activity; Effect on reducing ROS / inhibitory action (in words) (Red blood cells; listed as shikimic acid): does not show any effect; Enhancement of anti-inflammatory and anti-oxidative activity of other components (RAW macrophages): able to enhance; Inhibitory action / nitrite scavenging activity (in words) (RAW macrophages): shows inhibitory action; Enhancement of anti-inflammatory and anti-oxidative activity of other components [3]: able to enhance; Inhibitory action (in words) [3]: shows inhibitory action
7 | O=C(O)c1ccc(O)cc1 [p-hydoxybenzoic acid] | 11.4 | 17.3(±2.8) % | 22.5% | 30.6 (±0.2) % | –
8 | caffeoylshikimic acid | – | – | 25.9% | 35.2(±0.1) % | –
